Here are results for nine compounds from PubChem BioAssay (NCI).

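Step 1: Grow cells in 96-well plates. Step 2: Expose to compound for 48 hours at 5 concentrations. Step 3: Interpolate endpoints linearly; if unreached, use highest concentration. TGI: concentration producing complete growth inhibition.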 A value given as a limit tells only on which side of the number the result lay.

What all share (assay): inhibition of tumour cell growth, NCI panel, 48 h
For assay [1], the system named is OVCAR-5 ovarian.
The test system of assay [2] is MDA-N.
In assay [3] the test system is MDA-MB-231 breast.
For assay [4], the system named is IGROV1 ovarian.
Assay [5] deals with SK-MEL-5 melanoma.
Assay [6] deals with MDA-MB-435.
Assay [7] deals with SNB-19 CNS.
The subject of assay [8] is RXF 393 renal.
The test system of assay [9] is UACC-62 melanoma.
For assay [10], the system named is MCF7 breast.
The test system of assay [11] is HT29 colon.

Regarding `O=C(/C=C1\C[C@H]2C=Nc3ccccc3C(=O)N2C1)NCCCCNC(=O)/C=C1\C[C@H]2C=Nc3ccccc3C(=O)N2C1`, the TGI in assay [1] was found to be 34.4 µM; in assay [2], 24.3 µM; in assay [3] it was 0.986 µM; in [4], 27.8 µM; in [5] it was 27.1 µM; in [6], 21 µM. Moreover, the TGI in [7] is 31.8 µM; in [8], 19.2 µM; in assay [9], 29 µM; in [10], 35.1 µM; in assay [11] it was 31.4 µM.
Regarding `CN(C)CC1COC2Cc3ccccc3C1O2` (centres undefined), the TGI in assay [1], in [2], in [3], in assay [4], in assay [5] and in [6] was > 100 µM throughout. The TGI in assay [7], in assay [8], in [9], in assay [10] and in [11] was > 100 µM each time.
With `Cc1ccc(N=N/C(=N/NC(=O)c2cc(Cl)ccc2C(=O)c2ccccc2)c2ccc(N(CCC#N)CCC#N)cc2C)cc1`, the TGI in assay [1] was > 100 µM; in [2], > 100 µM; in [3], 24.8 µM; in assay [4], 41.3 µM; in assay [5], 33.6 µM; in assay [6], 82 µM. Besides, the TGI in assay [7] is > 100 µM; in assay [8], 7.24 µM; in assay [9], 36.2 µM; in assay [10], 15.2 µM; in assay [11] it was 39.9 µM.
`Brc1c(C#CCC(c2ccccc2)(c2ccccc2)c2ccccc2)ccc(C#CCC(c2ccccc2)(c2ccccc2)c2ccccc2)c1Br`: the TGI in assay [1], in assay [2], in [3], in [4], in assay [5] and in [6] was > 100 µM each time. In addition, the TGI in assay [7], in assay [8], in assay [9], in [10] and in assay [11] was > 100 µM throughout.
For the compound `CCN(CC)CCN1C(=O)c2c(c(-c3ccccc3)c3ccccc3c2-c2ccccc2)C1=O`, the TGI in [1], in assay [2], in [3], in assay [4], in assay [5] and in assay [6] was > 100 µM each time. The TGI in [7], in assay [8], in assay [9], in assay [10] and in [11] was > 100 µM in each case.
Regarding `CC(=O)NNc1nc(C)c(C(/C=C/c2ccc([N+](=O)[O-])cc2)=N/NC(N)=S)s1`, the TGI in assay [1], in assay [2], in assay [3], in [4], in assay [5] and in assay [6] was > 100 µM in each case. For the same compound, the TGI in assay [7], in assay [8], in assay [9], in assay [10] and in [11] was > 100 µM throughout.
Take `Cc1cc(-c2nc3ccccc3s2)ccc1N`: the TGI in assay [1] was 70.6 µM; in [2], > 83.6 µM; in assay [3] it was > 88.2 µM; in assay [4], > 100 µM; in assay [5], > 66.8 µM; in assay [6] it was > 79.8 µM. The TGI in [7] was > 100 µM; in assay [8] it was 98.7 µM; in [9], > 74.3 µM; in assay [10], > 100 µM; in assay [11] it was > 87.3 µM.
`CCOC(=O)Cc1csc2[n+]1C(=O)/C(=C\c1cccc(Cl)c1Cl)S2`: the TGI in assay [1] is > 100 µM; in [2], 56.6 µM; in assay [3], 87.4 µM; in [4], 50.6 µM; in assay [5], 30.6 µM; in assay [6] it was > 100 µM. Also, the TGI in [7] is 88 µM; in assay [8] it was 40.4 µM; in assay [9], 21.8 µM; in [10], > 100 µM; in assay [11], 41.2 µM.
As to `CCOP(=O)(C/C=C/Cn1nc(Br)c(=O)[nH]c1=O)OCC`, the TGI in assay [1], in [2], in assay [3], in assay [4], in assay [5] and in [6] was > 100 µM in each case. For the same compound, the TGI in assay [7], in [8], in [9], in assay [10] and in assay [11] was > 100 µM throughout.
